Experimental data taken from ChEMBL document CHEMBL1122093, “Preparation of the alpha and beta anomers of 9-(3,5-dideoxy-D-glycero-pent-4-enofuranosyl)adenine and their activity with leukemia L1210 cells in vitro” (1982).

How the values were obtained:
L1210 [1] = assay: In vitro for the inhibitory activity against L1210 leukemia cells at a concentration 3.4x10 E -4 M; assay type: functional; settings: Mus musculus
L1210 [2] = assay: In vitro for the inhibitory activity against L1210 leukemia cells at a concentration 3.2x10 E -4 M; assay type: functional; settings: Mus musculus

Compound	inhibition at 340 µM (L1210 [1]) [%]	inhibition at 320 µM (L1210 [2]) [%]
C=C1C[C@@H](O)[C@@H](n2cnc3c(N)ncnc32)O1	50	–
C=C1C[C@@H](O)[C@H](n2cnc3c(N)ncnc32)O1	–	50
